How the values were obtained:
[1] = system: RD10 cells (B-cell lymphoma); test: 3H-thymidine incorporation (mitogenic effect) in RD10 cells; format: cell-based
Protocol: (§1) ^3 H-thymidine incorporation experiments were carried out in Linbro-Titertek microtitre plates (Flow Laboratories, Inc., U.S.A.) following the method of L. Bradley in "Selected Methods of Cellular Immunology (1980) Eds. B. B. Mishell and S. M. Shiigi; Publisher. W. H. Freeman and Co., U.S.A. pp156. The tests were carried out externally by Dr. D. Rathjen of Peptide Technology Ltd., Dee Why, N.S.W.
1. RD10; a B-cell lymphoma (obtained from the Centre for Immunology, Sydney University, Sydney, NSW.
(§2) RD10 cells (at a cell density 5×10^5 /ml, 100 ul/well) were cultured for 20 hours at 37° C. with 5% CO2 in RPMI 1640 medium, supplemented with 10% Fetal Calf. Serum. Samples to be tested were mixed and sonicated with this medium at a concentration of 5000, 500.50 and 5 ug/ml and 100 ul aliquots added to the cells. The cells were pulsed with 0.5 uCi/well of ^3 H-thymidine and the plates incubated for four more hours before harvesting (Titertek Skatron harvester, Lier, Norway). Incorporated radioactivity was measured by liquid scintillation counting. All assays were performed in triplicate.

[2] = system: U937 cells (human monocyte-like histiocytic lymphoma); test: 3H-thymidine incorporation (mitogenic effect) in U937 cells; format: cell-based
Protocol: as §1
2. U937; a human monocyte-like3 histiocytic lymphoma (source: American Tissue Culture Collection).
as §2

[3] = target: T1, papain (Carica papaya, UniProt P00784); test: Protease treatment with papain (hydrolysis followed by HPLC); format: biochemical; details: phosphate buffer pH 6.5, enzyme/substrate 1:50, HPLC monitoring; main product Z-Ala-OH / Z-Gly-OH
T1 construct: purchased Sigma
T1 sequence (P00784 134-345): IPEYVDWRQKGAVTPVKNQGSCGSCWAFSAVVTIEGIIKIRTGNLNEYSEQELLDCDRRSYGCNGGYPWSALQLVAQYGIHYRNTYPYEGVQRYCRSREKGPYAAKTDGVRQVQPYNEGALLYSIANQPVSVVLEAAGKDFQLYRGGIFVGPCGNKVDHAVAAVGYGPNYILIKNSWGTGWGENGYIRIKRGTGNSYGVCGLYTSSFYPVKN
Protocol: (§3) Z-Gly-TRIS and Z-Ala-TRIS were incubated with papain, and Z-Leu-Arg-TRIS with trypsin, to test that the action of proteolytic enzymes could regenerate the starting compounds Z-Gly-OH, Z-Ala-OH and Z-Leu-Arg-OH respectively.
50 ul of a suspension of papain (25 mg/ml, Sigma) was incubated with 20 mM aqueous solution of EDTA (50 ul); 1 Molar solution of mercaptoethanol (25 ul); 50 mM triethylamine (25 ul); and water (100 ul) at 37° C. for 30 min.
a) Papain. Z-Ala-TRIS in 50 mmolar phosphate buffer pH 6.5 (650 ul), 20 mM ethylene-diamise-tetra-acetic acid (100 ul) and water to 1 ml. Activated papain (5 mg/ml) was added to a final enzyme/substrate ratio of 1:50. The reaction was followed by HPLC on C18 reverse phase columns and the hydrolysis product identified by co-chromatography with standards. Blanks were incubated as above using water instead of enzyme solution.

[4] = target: T2, TPCK trypsin (Bos taurus, UniProt P00760); test: Protease treatment with trypsin (hydrolysis followed by HPLC); format: biochemical; details: 0.2M ammonium hydrogen carbonate, 37° C., enzyme/substrate 1:50; product Z-Leu-Arg-OH
T2 sequence (P00760 24-246): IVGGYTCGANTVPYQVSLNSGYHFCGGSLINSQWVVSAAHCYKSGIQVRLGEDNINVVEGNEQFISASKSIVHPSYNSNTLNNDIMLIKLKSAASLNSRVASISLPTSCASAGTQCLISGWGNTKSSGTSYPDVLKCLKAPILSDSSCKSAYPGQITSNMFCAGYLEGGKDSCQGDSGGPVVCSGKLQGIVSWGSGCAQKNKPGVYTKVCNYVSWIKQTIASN
Protocol: as §3
b) Trypsin. Z-Leu-Arg-TRIS was incubated at a concentration between 2 and 10 mg/ml in 0.2M ammonium hydrogen carbonate. Freshly prepared TPCK trypsin (1 mg/ml in water) was added to the solution giving a final enzyme/substrate ratio of 1:50. Samples were incubated at 37° C. and aliquots examined by reverse phase HPLC. Additional amounts of enzyme were added as required.

[5] = system: RD10 cells (B-cell lymphoma); details: under these conditions; cited from earlier work

CCCCCCCCCCCCCCCC(=O)OCC(COC(=O)CCCCCCCCCCCCCCC)(COC(=O)CCCCCCCCCCCCCCC)NC(=O)C(C)N (stereo not drawn) [Ala-TRIS-Tripalmitate]
3H-thymidine uptake response compared with Z-Ala-TRIS-Tripalmitate [1]: slightly diminished response
Thymidine incorporation [2]: slightly diminished responses

CCCCCCCCCCCCCCCC(=O)OCC(COC(=O)CCCCCCCCCCCCCCC)(COC(=O)CCCCCCCCCCCCCCC)NC(=O)C(C)NC(=O)OCc1ccccc1 (stereo not drawn) [Z-Ala-TRIS-Tripalmitate, Z-Ala-TRIS-TRIPALMITATE]
3H-thymidine uptake: increase in cell proliferation compared to control ([1]; 20 hours culture, 4 hours pulse): 3-4 fold
Thymidine incorporation [2]: close to control
cytotoxic effects ([2]; at higher concentrations): slight cytotoxic effects

CC(NC(=O)OCc1ccccc1)C(=O)NC(CO)(CO)CO (stereo not drawn) [Z-Ala-TRIS]
enzymatic hydrolysis by papain [3]: hydrolysed by papain, albeit very slowly

O=C(CNC(=O)OCc1ccccc1)NC(CO)(CO)CO [Z-Gly-TRIS]
enzymatic hydrolysis by papain [3]: hydrolysed by papain, albeit very slowly

CC(C)C[C@H](NC(=O)OCc1ccccc1)C(=O)N[C@@H](CCCNC(=N)N)C(=O)NC(CO)(CO)CO [Z-Leu-Arg-TRIS]
enzymatic hydrolysis by trypsin [4]: hydrolyzed slowly

phytohaemagglutinin
3H-thymidine uptake: increase in cell proliferation (known mitogen, for comparison) [5]: 5-10 fold

— US5583198A, “Amino acids, peptides or derivatives thereof coupled to fats” (Commonwealth Scientific and Industrial Research Organization, priority 1989, dated 1996)
